# Source: US10144952B2, “Stabilization and isolation of extracellular nucleic acids” (QIAGEN GmbH, priority 2013, dated 2018)
# Structures can show the parent of a compound that is named as a salt. Where a SMILES comes first, the peptide text is derived from it. The star is where a group is joined. Cbz = O=C(OCc1ccccc1)*; CH2F = FC*
# Tests used:
# [1] = test system: Bid-induced cyctochrome c release from HeLa cell mitochondria; conditions: at 5 μM; cited from earlier work
# [2] = cited from earlier work; for t1/2: buffer
# [3] = test system: release of genomic DNA from white blood cells in whole blood (18S ribosomal DNA 66 bp and 500 bp amplicons); assay: 18S rDNA qPCR: increase of DNA in plasma of stored whole blood; assay type: cell-based, human; conditions: for released DNA / stabilization capability: 3 and 6 days at room temperature; for increase of 18S DNA from day 0: Example 5, 2.1, 20 μM, within 7 days of storage at RT
# From the text: Detection of ribosomal 18S DNA by quantitative real-time PCR, makes it possible to calculate the x-fold increase of DNA from day 0 to day 3 or 7 (calculation: division of day 3 (or 7) copies by day 0 copies).
# [4] = test system: transcriptional activation of COX-2; conditions: cited from earlier work
# calpain II = molecular target: T1, calpain II (Homo sapiens, UniProt P17655); conditions: irreversible inhibitor; cited from earlier work
# T1 sequence (P17655 1-700): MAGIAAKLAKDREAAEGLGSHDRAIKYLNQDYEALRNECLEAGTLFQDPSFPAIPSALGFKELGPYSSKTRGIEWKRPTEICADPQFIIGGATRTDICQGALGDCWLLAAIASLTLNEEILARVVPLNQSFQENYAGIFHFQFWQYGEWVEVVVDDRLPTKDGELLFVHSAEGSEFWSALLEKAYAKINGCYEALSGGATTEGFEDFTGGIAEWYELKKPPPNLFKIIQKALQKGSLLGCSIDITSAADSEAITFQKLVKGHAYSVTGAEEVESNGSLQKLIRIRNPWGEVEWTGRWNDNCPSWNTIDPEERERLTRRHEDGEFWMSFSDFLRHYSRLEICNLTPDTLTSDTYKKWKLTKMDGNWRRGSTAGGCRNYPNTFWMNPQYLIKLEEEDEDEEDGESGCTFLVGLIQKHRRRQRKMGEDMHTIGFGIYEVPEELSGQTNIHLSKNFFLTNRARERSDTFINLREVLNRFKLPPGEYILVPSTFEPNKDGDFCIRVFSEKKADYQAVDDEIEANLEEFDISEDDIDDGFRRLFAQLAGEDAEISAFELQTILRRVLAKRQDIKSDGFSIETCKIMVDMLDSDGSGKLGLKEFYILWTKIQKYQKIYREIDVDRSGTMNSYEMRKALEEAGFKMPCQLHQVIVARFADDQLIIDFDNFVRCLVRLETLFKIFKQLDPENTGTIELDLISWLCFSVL
# T1 sequence (P04632 1-268 partner): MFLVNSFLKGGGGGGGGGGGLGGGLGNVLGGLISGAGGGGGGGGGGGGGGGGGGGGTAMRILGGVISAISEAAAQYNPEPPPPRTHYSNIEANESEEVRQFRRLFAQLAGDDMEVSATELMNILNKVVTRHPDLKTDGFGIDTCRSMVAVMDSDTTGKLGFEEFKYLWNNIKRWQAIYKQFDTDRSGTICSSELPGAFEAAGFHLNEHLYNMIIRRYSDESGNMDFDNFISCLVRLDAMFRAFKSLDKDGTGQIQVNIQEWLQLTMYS
# cathepsin L = cathepsin L (Homo sapiens, UniProt P07711); conditions: cited from earlier work
# [5] = test system: ladder-like pattern of genomic DNA fragments (apoptosis) in whole blood; assay: chip gel electrophoresis of circulating cell-free DNA; assay type: cell-based; conditions: 20 μM in whole blood; day 3 and day 7
# Protocol: 1.3.1 Measurement of the blood cell stability/DNA release by the determination of DNA size distribution using a chip gel electrophoresis (2100 Bioanalyzer; Agilent Technologies; Inc., USA) according to manufacturer's instruction (see handbook Agilent DNA 7500 and DNA 12000 Kit Guide), but 1.5 μl instead of 1 μl sample were transferred to the wells.
# Each tested caspase inhibitor was added to whole blood samples (20 μM end concentration in 10 ml blood; blood was collected into Vacutainer K2E Tubes; BD). The whole blood sample was processed as described in section 1 (plasma preparation and nucleic acid isolation).
# The eluted circulating cell-free DNA was separated by size using chip gel electrophoresis (for details on the method see above). […] The DMSO control and the K2E blood (not treated according to the teachings of the present invention) show the same ladder-like pattern of bands. This pattern occurs in samples where apoptosis takes place. During apoptosis, endonucleases degrade genomic DNA at inter-nucleosomal linker regions and produce DNA fragments of circa 180 bp or multiples of 180 bp. Thus, apoptosis occurs in samples which show a clear ladder-like pattern. Furthermore, the strength (darkness) of the pattern is decisive. The darker the bands, the more genomic DNA was released from the cells and thus contaminates the extracellular nucleic acid population.
# [6] = test system: myocardial infarct size during reperfusion; conditions: cited from earlier work
# cells = conditions: cited from earlier work
# [7] = test system: etoposide-induced cortical neuron death; conditions: cited from earlier work
# cathepsin L, sequence (P07711 114-333, species assumed): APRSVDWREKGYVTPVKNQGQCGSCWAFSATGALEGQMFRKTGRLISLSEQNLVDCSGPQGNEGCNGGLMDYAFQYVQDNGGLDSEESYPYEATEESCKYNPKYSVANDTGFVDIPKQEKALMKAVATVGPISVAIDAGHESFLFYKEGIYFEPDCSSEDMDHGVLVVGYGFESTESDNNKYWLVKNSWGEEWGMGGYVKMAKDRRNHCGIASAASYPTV
molecule,measurement,setting,value
"OC(CN1CCNCC1)Cn1c2ccc(Br)cc2c2cc(Br)ccc21 (racemic) [Bax Channel Blocker, (±)-1-(3,6-Dibromocarbazol-9-yl)-3-piperazin-1-yl-propan-2-ol,bis TFA]",inhibition of Bid-induced cytochrome c release,[1],cyctochrome c release from HeLa cell mitochondria (~80%
"N=c1sc2c(n1CC(=O)c1ccc([N+](=O)[O-])cc1)CCCC2 [Pifithrin-α, p-Nitro]",t1/2,[2],biological systems (t1/2 = 8h in neuron culture medium at 37° C.).
CCCC(N)=O [butanamide],released DNA / stabilization capability,"[3]; Example 2, 2.5, 3 or 3.5% butanamide or 5% DMAA with 1 μM caspase inhibitor and EDTA",at least comparable stabilization capabilities to DMAA
same,released DNA / stabilization capability,"[3]; Example 3, butanamide 0.5-2% with DMPA 2.5-1%, 1 μM caspase inhibitor, EDTA",comparable stabilization capabilities
same,increase in 18S rDNA,"[3]; Example 4, 0.5, 1.5 and 2.5% (w/v) butanamide with 1 μM caspase inhibitor and EDTA",significantly reduced increase in 18S rDNA
O=c1c(O)c(-c2ccc(O)cc2)oc2cc(O)cc(O)c12 [Kaempferol],IC50,[4],< 15 µM
"CC(C)C[C@H](NC(=O)OCc1ccccc1)C(=O)N[C@@H](CC(C)C)C(=O)N[C@@H](Cc1ccc(O)cc1)C(=O)CF [Calpain Inhibitor IV, Z-Leu-Leu-Tyr-CH2F] (HELM PEPTIDE1{[O=C(OCc1ccccc1)[*:2]].L.L.Y.[FC[*:1]]}$$$$V2.0)",k2 calpain II,calpain II,"28,900 M-1s-1). Also acts as an inhibitor of cathepsin L (k2 ="
same,k2 cathepsin L,cathepsin L,"680,000 M-1s-1)."
COC(=O)C[C@H](NC(=O)[C@H](C)NC(=O)[C@@H](NC(=O)OCc1ccccc1)C(C)C)C(=O)CF [Z-Val-Ala-Asp(OMe)-FMK] (Cbz-Val-Ala-Asp(OMe)-CH2F),increase of 18S DNA from day 0,[3],more prominent on day 7
same,ladder-like pattern of cell-free DNA,[5],reduced ladder-like pattern
Ac-Leu-Glu-His-Asp-CMK (LEHD; HELM PEPTIDE1{[ac].L.E.H.D.[ClC[*:1]]}$$$$V2.0; SMILES CC(=O)N[C@@H](CC(C)C)C(=O)N[C@@H](CCC(=O)O)C(=O)N[C@@H](Cc1c[nH]cn1)C(=O)N[C@@H](CC(=O)O)C(=O)CCl) [Caspase-9 Inhibitor III],concentration reported to reduce myocardial infarct size,[6],myocardial infarct size during reperfusion (~70 nM).
"CC(C)C(NC(=O)c1ccc2ccccc2n1)C(=O)NC(CC(=O)O)C(=O)COc1c(F)cccc1F (stereo not drawn) [Q-VD-OPh, Quinoline-Val-Asp-CH2-OPH]",increase of 18S DNA from day 0,[3],reduced increase of DNA
same,ladder-like pattern of cell-free DNA,[5],significantly reduced ladder-like patterns
same,toxicity to cells,cells,not toxic to cells even at extremely high concentrations
"O=[N+]([O-])c1ccc(-c2cn3c4c(sc3n2)CCCC4)cc1 [Pifithrin-α, p-Nitro, Cyclic]",fold higher potency than Pifithrin-α,[7],A cell-permeable p53 inhibitor that exhibits 10-fold higher potency
same,t1/2,[2],6 h
same,longer half-life than Pifithrin-α,[2]; neuron culture medium at 37° C.,50%
